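Values below derive from 48-hour exposures of cells grown in 96-well plates, with endpoints linearly interpolated between the two concentrations bracketing the appropriate inhibition level. The concentration for 50% growth inhibition is given as GI50. TGI marks complete inhibition of growth.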
Tests used:
Test in all cases: NCI-60 cell line screen, 48 h
786-0 renal = tested on: 786-0 renal
A498 renal = tested on: A498 renal
A549 NSCLC = tested on: A549 NSCLC
ACHN renal = tested on: ACHN renal
BT-549 breast = tested on: BT-549 breast
CAKI-1 renal = tested on: CAKI-1 renal
CCRF-CEM leukemia = tested on: CCRF-CEM leukemia
COLO 205 colon = tested on: COLO 205 colon
DU-145 prostate = tested on: DU-145 prostate
EKVX NSCLC = tested on: EKVX NSCLC
HCC-2998 colon = tested on: HCC-2998 colon
HCT-116 colon = tested on: HCT-116 colon
HCT-15 colon = tested on: HCT-15 colon
HL-60(TB) leukemia = tested on: HL-60(TB) leukemia
HOP-62 NSCLC = tested on: HOP-62 NSCLC
HOP-92 NSCLC = tested on: HOP-92 NSCLC
HS 578T breast = tested on: HS 578T breast
HT29 colon = tested on: HT29 colon
IGROV1 ovarian = tested on: IGROV1 ovarian
K-562 leukemia = tested on: K-562 leukemia
KM12 colon = tested on: KM12 colon
LOX IMVI melanoma = tested on: LOX IMVI melanoma
M14 melanoma = tested on: M14 melanoma
MALME-3M melanoma = tested on: MALME-3M melanoma
MCF7 breast = tested on: MCF7 breast
MDA-MB-231 breast = tested on: MDA-MB-231 breast
MDA-MB-435 = tested on: MDA-MB-435
MDA-MB-468 breast = tested on: MDA-MB-468 breast
MOLT-4 leukemia = tested on: MOLT-4 leukemia
NCI-H226 lung = tested on: NCI-H226 lung
NCI-H23 lung = tested on: NCI-H23 lung
NCI-H460 lung = tested on: NCI-H460 lung
NCI-H522 lung = tested on: NCI-H522 lung
NCI/ADR-RES ovarian = tested on: NCI/ADR-RES ovarian
OVCAR-3 ovarian = tested on: OVCAR-3 ovarian
OVCAR-4 ovarian = tested on: OVCAR-4 ovarian
OVCAR-5 ovarian = tested on: OVCAR-5 ovarian
OVCAR-8 ovarian = tested on: OVCAR-8 ovarian
PC-3 prostate = tested on: PC-3 prostate
RPMI-8226 leukemia = tested on: RPMI-8226 leukemia
RXF 393 renal = tested on: RXF 393 renal
SF-268 CNS = tested on: SF-268 CNS
SF-295 CNS = tested on: SF-295 CNS
SF-539 CNS = tested on: SF-539 CNS
SK-MEL-2 melanoma = tested on: SK-MEL-2 melanoma
SK-MEL-28 melanoma = tested on: SK-MEL-28 melanoma
SK-MEL-5 melanoma = tested on: SK-MEL-5 melanoma
SK-OV-3 ovarian = tested on: SK-OV-3 ovarian
SN12C renal = tested on: SN12C renal
SNB-19 CNS = tested on: SNB-19 CNS
SNB-75 CNS = tested on: SNB-75 CNS
SR leukemia = tested on: SR leukemia
SW-620 colon = tested on: SW-620 colon
T-47D breast = tested on: T-47D breast
TK-10 renal = tested on: TK-10 renal
U251 CNS = tested on: U251 CNS
UACC-257 melanoma = tested on: UACC-257 melanoma
UACC-62 melanoma = tested on: UACC-62 melanoma
UO-31 renal = tested on: UO-31 renal

In the case of `O=C(NO)c1ccc(CNC(=O)[C@H]2Cc3c([nH]c4ccccc34)[C@H](c3ccccc3)N2)cc1`, the GI50 (786-0 renal) is reported as 9.15 µM, the TGI (786-0 renal) is reported as over 23.7 µM and the GI50 (A498 renal) is reported as 2.46 µM. The TGI (A498 renal) was 11.7 µM, the GI50 (A549 NSCLC) was 6.77 µM and the TGI (A549 NSCLC) was over 23.7 µM. The GI50 (ACHN renal) was 5 µM, the TGI (ACHN renal) was 16.2 µM and the GI50 (BT-549 breast) was 14.2 µM. For the same compound, the TGI (BT-549 breast) was over 23.7 µM, the GI50 (CAKI-1 renal) was 5.69 µM and the TGI (CAKI-1 renal) was 16.6 µM. The GI50 (CCRF-CEM leukemia) was 0.785 µM, the TGI (CCRF-CEM leukemia) was over 23.7 µM and the GI50 (COLO 205 colon) was 2.36 µM. For the same compound, the TGI (COLO 205 colon) was 5.57 µM, the GI50 (DU-145 prostate) was 4.06 µM and the TGI (DU-145 prostate) was over 23.7 µM. The GI50 (EKVX NSCLC) was 8.42 µM, the TGI (EKVX NSCLC) was over 23.7 µM and the GI50 (HCC-2998 colon) was 2.9 µM. For the same compound, the TGI (HCC-2998 colon) was 6.91 µM, the GI50 (HCT-116 colon) was 1.13 µM and the TGI (HCT-116 colon) was over 23.7 µM. The GI50 (HCT-15 colon) was 11.8 µM, the TGI (HCT-15 colon) was over 23.7 µM and the GI50 (HL-60(TB) leukemia) was 3 µM. It also gave a TGI (HL-60(TB) leukemia) of over 23.7 µM, a GI50 (HOP-62 NSCLC) of 3.6 µM and a TGI (HOP-62 NSCLC) of 13.1 µM. For the same compound, the GI50 (HOP-92 NSCLC) was 1.59 µM, the TGI (HOP-92 NSCLC) was 12.4 µM and the GI50 (HS 578T breast) was 1.38 µM. The TGI (HS 578T breast) was 21.8 µM, the GI50 (HT29 colon) was 3.29 µM and the TGI (HT29 colon) was 18 µM. For the same compound, the GI50 (IGROV1 ovarian) was 3.71 µM, the TGI (IGROV1 ovarian) was 15.2 µM and the GI50 (K-562 leukemia) was 1.38 µM. The TGI (K-562 leukemia) was over 23.7 µM, the GI50 (KM12 colon) was 5.01 µM and the TGI (KM12 colon) was over 23.7 µM. For the same compound, the GI50 (LOX IMVI melanoma) was 3.35 µM, the TGI (LOX IMVI melanoma) was 6.43 µM and the GI50 (M14 melanoma) was 5.93 µM. It also gave a TGI (M14 melanoma) of over 23.7 µM, a GI50 (MALME-3M melanoma) of 0.545 µM and a TGI (MALME-3M melanoma) of over 23.7 µM. For the same compound, the GI50 (MCF7 breast) was 3.59 µM, the TGI (MCF7 breast) was over 23.7 µM and the GI50 (MDA-MB-231 breast) was 3.53 µM. It also gave a TGI (MDA-MB-231 breast) of 12.4 µM, a GI50 (MDA-MB-435) of 3.26 µM and a TGI (MDA-MB-435) of 13.5 µM. It also gave a GI50 (MDA-MB-468 breast) of 0.507 µM, a TGI (MDA-MB-468 breast) of 2.33 µM and a GI50 (MOLT-4 leukemia) of 0.763 µM. For the same compound, the TGI (MOLT-4 leukemia) was over 23.7 µM, the GI50 (NCI-H226 lung) was 2.7 µM and the TGI (NCI-H226 lung) was over 23.7 µM. It also gave a GI50 (NCI-H23 lung) of 4.71 µM, a TGI (NCI-H23 lung) of 18.3 µM and a GI50 (NCI-H460 lung) of 3.59 µM. It also gave a TGI (NCI-H460 lung) of over 23.7 µM, a GI50 (NCI-H522 lung) of 0.685 µM and a TGI (NCI-H522 lung) of 5.64 µM. It also gave a GI50 (NCI/ADR-RES ovarian) of 5.72 µM, a TGI (NCI/ADR-RES ovarian) of over 23.7 µM and a GI50 (OVCAR-3 ovarian) of 2.51 µM. For the same compound, the TGI (OVCAR-3 ovarian) was 12.6 µM, the GI50 (OVCAR-4 ovarian) was 8.3 µM and the TGI (OVCAR-4 ovarian) was over 23.7 µM. It also gave a GI50 (OVCAR-5 ovarian) of 1.42 µM, a TGI (OVCAR-5 ovarian) of 6.84 µM and a GI50 (OVCAR-8 ovarian) of 1.43 µM. The TGI (OVCAR-8 ovarian) was over 23.7 µM, the GI50 (PC-3 prostate) was 5.39 µM and the TGI (PC-3 prostate) was over 23.7 µM. It also gave a GI50 (RPMI-8226 leukemia) of 1.35 µM, a TGI (RPMI-8226 leukemia) of over 23.7 µM and a GI50 (RXF 393 renal) of 1.92 µM. The TGI (RXF 393 renal) was 6.54 µM, the GI50 (SF-268 CNS) was 5.5 µM and the TGI (SF-268 CNS) was over 23.7 µM. For the same compound, the GI50 (SF-295 CNS) was 3.34 µM, the TGI (SF-295 CNS) was 7.89 µM and the GI50 (SF-539 CNS) was 3.73 µM. For the same compound, the TGI (SF-539 CNS) was over 23.7 µM, the GI50 (SK-MEL-2 melanoma) was 3.66 µM and the TGI (SK-MEL-2 melanoma) was 14.6 µM. The GI50 (SK-MEL-28 melanoma) was 3.13 µM, the TGI (SK-MEL-28 melanoma) was 22 µM and the GI50 (SK-MEL-5 melanoma) was 2.66 µM. It also gave a TGI (SK-MEL-5 melanoma) of 5.93 µM, a GI50 (SK-OV-3 ovarian) of 3.28 µM and a TGI (SK-OV-3 ovarian) of 11.3 µM. For the same compound, the GI50 (SN12C renal) was 5.27 µM, the TGI (SN12C renal) was 23.5 µM and the GI50 (SNB-19 CNS) was 5.19 µM. It also gave a TGI (SNB-19 CNS) of over 23.7 µM, a GI50 (SNB-75 CNS) of 1.99 µM and a TGI (SNB-75 CNS) of over 23.7 µM. The GI50 (SR leukemia) was 0.449 µM, the TGI (SR leukemia) was over 23.7 µM and the GI50 (SW-620 colon) was 2.31 µM. The TGI (SW-620 colon) was 7.76 µM, the GI50 (T-47D breast) was 1.03 µM and the TGI (T-47D breast) was 9.84 µM. For the same compound, the GI50 (TK-10 renal) was 2.88 µM, the TGI (TK-10 renal) was 19.2 µM and the GI50 (U251 CNS) was 2.78 µM. For the same compound, the TGI (U251 CNS) was 12.9 µM, the GI50 (UACC-257 melanoma) was 1.43 µM and the TGI (UACC-257 melanoma) was 15.9 µM. For the same compound, the GI50 (UACC-62 melanoma) was 1.13 µM, the TGI (UACC-62 melanoma) was 4.64 µM and the GI50 (UO-31 renal) was 5.58 µM. For the same compound, the TGI (UO-31 renal) was over 23.7 µM.
